# Laboratory results as given in the supplement of paper PMC10307832.
# Assays:
# Test in all cases: relative viability (nuclei count vs DMSO), 5 days (fraction); higher = more cells survive
# [1] = compound: CC(=O)c1c(C)c2cnc(Nc3ccc(N4CCNCC4)cn3)nc2n(C2CCCC2)c1=O [Palbociclib] + CC1(C)CCC(c2ccc(Cl)cc2)=C(CN2CCN(c3ccc(C(=O)NS(=O)(=O)c4ccc(N[C@H](CCN5CCOCC5)CSc5ccccc5)c(S(=O)(=O)C(F)(F)F)c4)cc3)CC2)C1 [Navitoclax] (partner 0.5 µM)
# Summary of the method: (§1)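 Medians of duplicate plates are given as relative viability. That measure is the nuclei count in treated wells divided by the count in vehicle wells. Counts were taken on 4× images of lung cancer cell lines in 1536-well plates, 5 days after pin-tool dosing the day after seeding with one drug alone or a fixed anchor-drug dose plus five library-drug doses (not always all listed) in √10 steps.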
# [2] = compound: CC(=O)c1c(C)c2cnc(Nc3ccc(N4CCNCC4)cn3)nc2n(C2CCCC2)c1=O [Palbociclib] + CCNC(=O)c1noc(-c2cc(C(C)C)c(O)cc2O)c1-c1ccc(CN2CCOCC2)cc1 [Luminespib] (partner 0.01 µM)
# Summary of the method: as §1
# [3] = compound: CC(=O)c1c(C)c2cnc(Nc3ccc(N4CCNCC4)cn3)nc2n(C2CCCC2)c1=O [Palbociclib] + CS(=O)(=O)CCNCc1ccc(-c2ccc3ncnc(Nc4ccc(OCc5cccc(F)c5)c(Cl)c4)c3c2)o1 [Lapatinib] (partner 2 µM)
# Summary of the method: as §1
# [4] = compound: CC(=O)c1c(C)c2cnc(Nc3ccc(N4CCNCC4)cn3)nc2n(C2CCCC2)c1=O [Palbociclib] + Cc1nc(NC(=O)N2CCC[C@H]2C(N)=O)sc1-c1ccnc(C(C)(C)C(F)(F)F)c1 [Alpelisib] (partner 2 µM)
# Summary of the method: as §1
Cell Line,relative viability ([1]; first compound 0.01 µM),relative viability ([1]; first compound 0.03162 µM),relative viability ([1]; first compound 0.1 µM),relative viability ([1]; first compound 0.3162 µM),relative viability ([1]; first compound 1 µM),relative viability ([2]; first compound 0.01 µM),relative viability ([2]; first compound 0.03162 µM),relative viability ([2]; first compound 0.1 µM),relative viability ([2]; first compound 0.3162 µM),relative viability ([2]; first compound 1 µM),relative viability ([3]; first compound 0.01 µM),relative viability ([3]; first compound 0.03162 µM),relative viability ([3]; first compound 0.1 µM),relative viability ([3]; first compound 0.3162 µM),relative viability ([3]; first compound 1 µM),relative viability ([4]; first compound 0.01 µM),relative viability ([4]; first compound 0.03162 µM),relative viability ([4]; first compound 0.1 µM),relative viability ([4]; first compound 0.3162 µM),relative viability ([4]; first compound 1 µM)
201T,1.22,1.2,1.08,1.08,1.01,1.02,1.01,0.909,0.878,0.749,1.06,0.844,0.928,0.94,0.692,0.995,1.04,0.884,0.974,0.728
A549,1.09,0.904,0.667,0.515,0.335,–,–,–,–,–,0.868,0.784,0.615,0.474,0.364,0.741,0.651,0.486,0.356,0.254
A-427,0.978,0.941,0.869,0.874,0.656,0.991,0.809,0.691,0.74,0.501,0.965,0.735,1.03,0.895,0.648,1.08,0.951,0.929,0.893,0.816
ABC-1,–,–,–,–,–,0.625,0.521,0.423,0.459,0.949,1.01,1.3,1.26,1.07,1.25,1.28,0.91,0.785,0.751,0.412
Calu-6,0.863,0.792,0.683,0.549,0.479,–,–,–,–,–,1.07,0.897,0.855,0.709,0.53,0.817,0.864,0.751,0.695,0.465
ChaGo-K-1,1.22,0.463,1.08,1.09,1.18,0.532,0.575,0.893,0.689,0.62,–,–,–,–,–,–,–,–,–,–
EBC-1,0.363,0.367,0.283,0.215,0.195,–,–,–,–,–,0.221,0.215,0.178,0.191,0.192,0.786,0.774,0.573,0.409,0.184
HCC-78,0.812,0.473,0.382,0.447,0.201,–,–,–,–,–,0.914,0.313,0.513,0.685,0.198,0.305,0.242,0.217,0.263,0.216
HCC-366,1.05,–,0.996,0.877,0.803,–,–,–,–,–,1.06,–,0.953,0.91,0.608,0.517,–,0.345,0.209,0.204
